Patent publication US9834544B2, “Sweet flavor modifier” (SENOMYX, INC., priority 2011, dated 2017)

Tests used:
Format in all cases: in vivo
Human Panelists [1] = assay: Sweet flavor enhancement, human panelists, paired comparison test
Protocol: (§1) Test samples containing experimental compounds are presented in pairs to the panelist and they are asked to determine which of the sample is sweeter. A group of 10-16 or more panelists participated in each test. Subjects refrained from eating or drinking (except water) for at least 1 hour prior to the test. Subjects rinsed with water several times to clean the mouth.
All samples are prepared with ethanol to ensure dispersion of the compound in solution. This includes samples without compound; all solutions are balanced for 0.1% ethanol.
Samples are also prepared with low sodium buffer (pH 7.1) in place of water. Buffer contains 0.952 g of KCl, 5.444 g of Na2HPO4, and 0.952 g of KH2PO4 in 40 L of DIUF water. Sample volumes are usually 20 ml.
(§2) In one paired comparison test, the panelist is presented with two different samples and asked to identify the sample which is sweeter. The samples within a paired comparison test are presented in a randomized, counterbalanced order. Panelists have up to a 1 minute delay between taste tests to clear the mouth of any tastes.
(§3) Binomial probability tables are used to determine the probability of the correct number of responses occurring for each test at alpha=0.05

Human Panelists [2] = assay: Paired comparison test with Compound D5 in product prototype (drinks)
Protocol: as §1, §2, §3
Human panelists evaluated various drinks (e.g., tea, coffee, Kool-Aid) in paired comparison taste test procedure.

Human Panelists [3] = assay: Sweet flavor enhancement, human panelists, scaling test; conditions: 0 to 15 scale, n = 30
Description: Test samples containing experimental compounds were compared to a dose-response curve for perceived sweetness intensity of sweeteners (sucralose, sucrose, fructose and other sweeteners) concentrations to determine equivalent sweetness intensity.
A group of eight or more panelists tasted solutions including sweeteners at various concentrations, as well as the experimental compound both with and without added sweetener. Panelists then rated sweetness intensity of all samples on a structured horizontal line scale, anchored from 0 to 15, where 0 equals no sweetness and 15 equals equivalent sweetness to a 15% sucrose sample. Scores for sweetness intensity were averaged across panelists. Then using the average scores and/or equation of the line for the sweetener dose-response curve, equivalent sweetness concentrations were determined for the samples containing experimental compounds.
Subjects had been previously familiarized with the key attribute taste and were trained to use the 0 to 15 point line scale. Subjects refrained from eating or drinking (except water) for at least 1 hour prior to the test. Subjects ate a cracker and rinsed with water several times to clean the mouth.
Sweetener solutions are provided at a wide range of concentrations such as 100 ppm, 200 ppm, 300 ppm, 400 ppm, and 500 ppm for sucralose, or between 0% and 12% for sucrose or fructose, in order to create a dose-response curve. Samples containing experimental compound were prepared both alone and in a 100 ppm sucralose solution or a 6% sucrose or fructose solution. All samples were made up in low sodium buffer pH 7.1. In order to aid dispersion, solutions can be made up in 0.1% ethanol.
The solutions were dispensed in 20 ml volumes into 1 oz. sample cups and served to the subjects at room temperature. All samples were presented in randomized counterbalanced order to reduce response bias. Further, two sessions of testing may be used to check panel precision.
Subjects tasted each sample individually and rate sweetness intensity on the line scale prior to tasting the next sample. All samples were expectorated. Subjects may retaste the samples but can only use the volume of sample given. Subjects must rinse with water between samples. Eating an unsalted cracker between samples may be required depending on the samples tasted.
The scores for each sample were averaged across subjects and standard error was calculated. The dose-response curve was plotted graphically, and this may be used to ensure the panel is rating accurately; i.e., increasing the concentration of sucralose should correspond to increased average scores for sweetness. […]

With `OC[C@H]1O[C@@](CO)(O[C@H]2O[C@H](CO)[C@@H](O)[C@H](O)[C@H]2O)[C@@H](O)[C@@H]1O` [Sucrose] the “Sample selected as sweeter by panelists, Total” value (from here on “Sample selected as sweeter”) (Human Panelists [1]; 1% Sucrose vs LSB + 27.8 μM Compound D5, n = 45) was 43, the “Sample selected as sweeter” value (Human Panelists [1]; 1% Sucrose vs LSB + 27.8 μM Compound Y5, n = 45) was 44 and the “Sample selected as sweeter” value (Human Panelists [1]; 1% Sucrose vs LSB + 111.3 μM Compound D5, n = 29) was 21. For the same compound, the “Sample selected as sweeter” value (Human Panelists [1]; 10% Sucrose vs 6% Sucrose + 24.9 μM Compound E5, n = 39) was 13, the “Sample selected as sweeter” value (Human Panelists [1]; 10% Sucrose vs 6% Sucrose + 26.8 μM Compound L6, n = 45) was 14 and the “Sample selected as sweeter” value (Human Panelists [1]; 10% Sucrose vs 6% Sucrose + 26.9 μM Compound A6, n = 45) was 9. The “Sample selected as sweeter” value (Human Panelists [1]; 10% Sucrose vs 6% Sucrose + 26.9 μM Compound Q5, n = 48) was 13, the “Sample selected as sweeter” value (Human Panelists [1]; 10% Sucrose vs 6% Sucrose + 26.9 μM Compound R5, n = 42) was 16 and the “Sample selected as sweeter” value (Human Panelists [1]; 10% Sucrose vs 6% Sucrose + 27.8 μM Compound D5, n = 45) was 13. For the same compound, the “Sample selected as sweeter” value (Human Panelists [1]; 10% Sucrose vs 6% Sucrose + 27.8 μM Compound Y5, n = 11 (11 panelists × 2 reps)) was 8, the “Sample selected as sweeter” value (Human Panelists [1]; 10% Sucrose vs 6% Sucrose + 27.9 μM Compound K5, n = 45) was 11 and the “Sample selected as sweeter” value (Human Panelists [1]; 10% Sucrose vs 6% Sucrose + 28.9 μM Compound E6, n = 39) was 18. For the same compound, the “Sample selected as sweeter” value (Human Panelists [2]; 8% Sucrose Brewed Neutral Black Tea vs 4% Sucrose Brewed Neutral Black Tea + 30.6 μM Compound D5, n = 39) was 22, the “Sample selected as sweeter” value (Human Panelists [2]; 8% Sucrose Coffee Drink vs 4% Sucrose Coffee Drink + 23.65 μM Compound D5, n = 39) was 20 and the “Sample selected as sweeter” value (Human Panelists [2]; 10% Sucrose Cherry Kool-Aid vs 5% Sucrose Cherry Kool-Aid + 41.7 μM Compound D5, n = 33) was 18. For the same compound, the “Sample selected as sweeter” value (Human Panelists [2]; 10% Sucrose Lemonade Kool-Aid vs 5% Sucrose Lemonade Kool-Aid + 41.7 μM Compound D5, n = 48) was 27, the “Average Sweetness” value (Human Panelists [3]; 6% Sucrose) was 6.6 and the “Average Sweetness” value (Human Panelists [3]; 8% Sucrose) was 8.1. The “Average Sweetness” value (Human Panelists [3]; 10% Sucrose) was 9.8 and the “Average Sweetness” value (Human Panelists [3]; 12% Sucrose) was 11.0.
